According to BindingDB's records for PubMed 10347254 (R. W. Johnson Pharmaceutical Research Institute, 1999):

Each molecule was assayed against Histamine H3 receptor (Homo sapiens, UniProt Q9Y5N1).
Sequence of Histamine H3 receptor (Q9Y5N1 whole entry): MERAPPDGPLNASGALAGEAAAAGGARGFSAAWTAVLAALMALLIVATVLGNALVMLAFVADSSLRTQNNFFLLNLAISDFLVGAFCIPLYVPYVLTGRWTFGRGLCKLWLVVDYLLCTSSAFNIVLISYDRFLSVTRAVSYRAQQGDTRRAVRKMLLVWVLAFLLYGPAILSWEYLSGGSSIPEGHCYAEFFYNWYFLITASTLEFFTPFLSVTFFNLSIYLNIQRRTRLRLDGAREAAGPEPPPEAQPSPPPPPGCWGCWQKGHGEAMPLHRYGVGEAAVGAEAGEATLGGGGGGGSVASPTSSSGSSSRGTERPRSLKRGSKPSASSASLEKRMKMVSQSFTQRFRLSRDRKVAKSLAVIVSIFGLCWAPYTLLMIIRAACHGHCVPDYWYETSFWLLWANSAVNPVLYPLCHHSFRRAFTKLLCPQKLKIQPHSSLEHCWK
Work on `COc1ccc(CN(CCN(C)C)c2ccccn2)cc1` yielded a Ki of over 10 µM.
`CN/C([CH-][N+](=O)[O-])=[NH+]\CCSCc1ccc(CN(C)C)o1` gave a Ki of over 10 µM.
Work on `c1c[nH]cn1` yielded a Ki of over 10 µM.
`N=C(N)SCCc1cnc[nH]1` [2-(3H-imidazol-4-yl)ethylsulfanylmethanimidamide] showed a Ki of over 10 µM.
With `c1nc(CC2CCNCC2)c[nH]1` [4-(1H-imidazol-4-ylmethyl)piperidine] the Ki was over 10 µM.
For `CNCCc1c[nH]cn1` [N(alpha)-Methylhistamine], the Ki was over 10 µM.
